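Five concentrations, 48 hours, 96-well plates. Here, GI50 denotes the concentration required for 50% inhibition of growth.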 Active and inactive are the calls of the source. No stated cut-off is given here; in the data, active = GI50 up to about 1.1 µM and inactive = higher.
Columns and labels:
Assay in all cases: inhibition of tumour cell growth, NCI panel, 48 h
A498 = system: A498
ACHN = system: ACHN
CAKI-1 = system: CAKI-1
CCRF-CEM = system: CCRF-CEM
DU-145 = system: DU-145
HT-29 = system: HT-29
Hs-578T = system: Hs-578T
M14 = system: M14
MDA-N = system: MDA-N
NCI-H460 = system: NCI-H460
NCI/ADR-RES = system: NCI/ADR-RES
OVCAR-3 = system: OVCAR-3
OVCAR-5 = system: OVCAR-5
OVCAR-8 = system: OVCAR-8
RPMI-8226 = system: RPMI-8226
RXF 393 = system: RXF 393
SF-295 = system: SF-295
SK-MEL-5 = system: SK-MEL-5
SK-OV-3 = system: SK-OV-3
TK-10 = system: TK-10

For `O=c1cc(/C=C/c2ccc(O)c(O)c2)oc(/C=C/c2ccc(O)c(O)c2)c1`, the GI50 (A498) was 3.84 µM (inactive), the GI50 (ACHN) was 4.84 µM (inactive) and the GI50 (CAKI-1) was 3.37 µM (inactive). The GI50 (CCRF-CEM) was 1.24 µM (inactive), the GI50 (DU-145) was 4.55 µM (inactive) and the GI50 (HT-29) was 7.91 µM (inactive). The GI50 (Hs-578T) was 4.09 µM (inactive), the GI50 (M14) was 4.52 µM (inactive) and the GI50 (MDA-N) was 2.24 µM (inactive). The GI50 (NCI-H460) was 5.02 µM (inactive), the GI50 (NCI/ADR-RES) was 26.1 µM (inactive) and the GI50 (OVCAR-3) was 3.19 µM (inactive). The GI50 (OVCAR-5) was 17.2 µM (inactive), the GI50 (OVCAR-8) was 4.4 µM (inactive) and the GI50 (RPMI-8226) was 6.58 µM (inactive). The GI50 (RXF 393) was 2.72 µM (inactive), the GI50 (SF-295) was 9.06 µM (inactive) and the GI50 (SK-MEL-5) was 3.19 µM (inactive). For the same compound, the GI50 (SK-OV-3) was 9.02 µM (inactive) and the GI50 (TK-10) was 7.33 µM (inactive).

For `O=Cc1ccc(-c2nccc3c2[nH]c2ccccc23)o1`, the GI50 (A498) was 0.585 µM (active), the GI50 (ACHN) was > 100 µM (inactive) and the GI50 (CAKI-1) was 4.91 µM (inactive). The GI50 (CCRF-CEM) was > 100 µM (inactive), the GI50 (DU-145) was > 100 µM (inactive) and the GI50 (HT-29) was > 88.1 µM (inactive). For the same compound, the GI50 (Hs-578T) was 19.4 µM (inactive), the GI50 (M14) was 91.6 µM (inactive) and the GI50 (MDA-N) was > 100 µM (inactive). The GI50 (NCI-H460) was 38.9 µM (inactive), the GI50 (NCI/ADR-RES) was > 100 µM (inactive) and the GI50 (OVCAR-3) was > 75.7 µM (inactive). For the same compound, the GI50 (OVCAR-5) was 12.3 µM (inactive), the GI50 (OVCAR-8) was > 87.1 µM (inactive) and the GI50 (RPMI-8226) was > 81.8 µM (inactive). The GI50 (RXF 393) was 22.2 µM (inactive), the GI50 (SF-295) was 20.4 µM (inactive) and the GI50 (SK-MEL-5) was 82.2 µM (inactive). The GI50 (SK-OV-3) was 97.7 µM (inactive) and the GI50 (TK-10) was 7.36 µM (inactive).

With `O=C1OCOC2(CCCC2)C1c1ccccc1` (stereo not given) the GI50 (A498) was > 100 µM (inactive), the GI50 (ACHN) was > 100 µM (inactive) and the GI50 (CAKI-1) was > 100 µM (inactive). For the same compound, the GI50 (CCRF-CEM) was > 100 µM (inactive), the GI50 (DU-145) was > 100 µM (inactive) and the GI50 (HT-29) was > 100 µM (inactive). For the same compound, the GI50 (Hs-578T) was > 100 µM (inactive), the GI50 (M14) was > 100 µM (inactive) and the GI50 (MDA-N) was > 100 µM (inactive). For the same compound, the GI50 (NCI-H460) was > 100 µM (inactive), the GI50 (NCI/ADR-RES) was > 100 µM (inactive) and the GI50 (OVCAR-3) was > 100 µM (inactive). For the same compound, the GI50 (OVCAR-5) was > 100 µM (inactive), the GI50 (OVCAR-8) was > 100 µM (inactive) and the GI50 (RPMI-8226) was > 100 µM (inactive). For the same compound, the GI50 (RXF 393) was > 100 µM (inactive), the GI50 (SF-295) was > 100 µM (inactive) and the GI50 (SK-MEL-5) was > 100 µM (inactive). The GI50 (SK-OV-3) was > 100 µM (inactive) and the GI50 (TK-10) was > 100 µM (inactive).

`Cn1c(N2CCCC2)c(C=O)c(=O)n(C)c1=O` was tested, and the GI50 (A498) was > 100 µM (inactive), the GI50 (ACHN) was > 100 µM (inactive) and the GI50 (CAKI-1) was > 100 µM (inactive). The GI50 (CCRF-CEM) was > 100 µM (inactive), the GI50 (DU-145) was > 100 µM (inactive) and the GI50 (HT-29) was > 100 µM (inactive). For the same compound, the GI50 (Hs-578T) was 91.6 µM (inactive), the GI50 (M14) was > 100 µM (inactive) and the GI50 (MDA-N) was > 100 µM (inactive). The GI50 (NCI-H460) was > 100 µM (inactive), the GI50 (NCI/ADR-RES) was > 100 µM (inactive) and the GI50 (OVCAR-3) was > 100 µM (inactive). The GI50 (OVCAR-5) was > 100 µM (inactive), the GI50 (OVCAR-8) was > 100 µM (inactive) and the GI50 (RPMI-8226) was > 100 µM (inactive). For the same compound, the GI50 (RXF 393) was > 100 µM (inactive), the GI50 (SF-295) was > 100 µM (inactive) and the GI50 (SK-MEL-5) was > 100 µM (inactive). The GI50 (SK-OV-3) was > 100 µM (inactive) and the GI50 (TK-10) was > 100 µM (inactive).

With `CC(C)(C)c1cc(C(=O)/C=C/c2ccc3c(c2)OCO3)cc(C(C)(C)C)c1O` the GI50 (A498) was 10.3 µM (inactive), the GI50 (ACHN) was 8.55 µM (inactive) and the GI50 (CAKI-1) was 9.29 µM (inactive). For the same compound, the GI50 (CCRF-CEM) was 3.48 µM (inactive), the GI50 (DU-145) was 5.06 µM (inactive) and the GI50 (HT-29) was 5.73 µM (inactive). The GI50 (Hs-578T) was 6.93 µM (inactive), the GI50 (M14) was 8.11 µM (inactive) and the GI50 (MDA-N) was 1.98 µM (inactive). For the same compound, the GI50 (NCI-H460) was 4.8 µM (inactive), the GI50 (NCI/ADR-RES) was 4.29 µM (inactive) and the GI50 (OVCAR-3) was 4.53 µM (inactive). The GI50 (OVCAR-5) was 16.3 µM (inactive), the GI50 (OVCAR-8) was 13.6 µM (inactive) and the GI50 (RPMI-8226) was 4.39 µM (inactive). For the same compound, the GI50 (RXF 393) was 1.86 µM (inactive), the GI50 (SF-295) was 5.7 µM (inactive) and the GI50 (SK-MEL-5) was 4.2 µM (inactive). The GI50 (SK-OV-3) was 15.8 µM (inactive) and the GI50 (TK-10) was 9.91 µM (inactive).

With `[O-][n+]1onc2c1-c1nonc1CC2` the GI50 (A498) was 31.7 µM (inactive), the GI50 (ACHN) was 27.1 µM (inactive) and the GI50 (CAKI-1) was 69.3 µM (inactive). For the same compound, the GI50 (CCRF-CEM) was 27.7 µM (inactive), the GI50 (DU-145) was 51.2 µM (inactive) and the GI50 (HT-29) was 35.5 µM (inactive). For the same compound, the GI50 (Hs-578T) was 26.7 µM (inactive), the GI50 (M14) was 25.1 µM (inactive) and the GI50 (MDA-N) was 46.2 µM (inactive). For the same compound, the GI50 (NCI-H460) was 54.2 µM (inactive), the GI50 (NCI/ADR-RES) was 42.7 µM (inactive) and the GI50 (OVCAR-3) was 10.6 µM (inactive). For the same compound, the GI50 (OVCAR-5) was 50.8 µM (inactive), the GI50 (OVCAR-8) was 46 µM (inactive) and the GI50 (RPMI-8226) was > 100 µM (inactive). The GI50 (RXF 393) was 36.1 µM (inactive), the GI50 (SF-295) was > 100 µM (inactive) and the GI50 (SK-MEL-5) was 27 µM (inactive). The GI50 (SK-OV-3) was 47.9 µM (inactive) and the GI50 (TK-10) was 21.5 µM (inactive).

In the case of `CO[C@@H]1C=C[C@@]23c4cc5c(cc4C(O)N(CC2O)C3C1)OCO5` (stereo not given in full), the GI50 (A498) was 3.15 µM (inactive), the GI50 (ACHN) was 3.33 µM (inactive) and the GI50 (CAKI-1) was 3.58 µM (inactive). For the same compound, the GI50 (CCRF-CEM) was 1.79 µM (inactive), the GI50 (DU-145) was 3.81 µM (inactive) and the GI50 (HT-29) was 3 µM (inactive). The GI50 (Hs-578T) was 22.6 µM (inactive), the GI50 (M14) was 3.14 µM (inactive) and the GI50 (MDA-N) was 3.2 µM (inactive). The GI50 (NCI-H460) was 2.84 µM (inactive), the GI50 (NCI/ADR-RES) was 13.9 µM (inactive) and the GI50 (OVCAR-3) was 4.86 µM (inactive). The GI50 (OVCAR-5) was 4.91 µM (inactive), the GI50 (OVCAR-8) was 3.63 µM (inactive) and the GI50 (RPMI-8226) was 4.18 µM (inactive). The GI50 (RXF 393) was 5.62 µM (inactive), the GI50 (SF-295) was 5.41 µM (inactive) and the GI50 (SK-MEL-5) was 2.01 µM (inactive). The GI50 (SK-OV-3) was 3.66 µM (inactive) and the GI50 (TK-10) was 4.19 µM (inactive).

From ChEMBL document CHEMBL1201862, “PubChem BioAssay data set” (2004)
